# Measured values: US7776878B2, “Heterocyclic benzylamino derivatives, their manufacture and use as pharmaceutical agents” (Hoffmann-La Roche Inc., priority 2005, dated 2010)
# Columns and labels:
# [1] = target: T1, Upstate Lck (p56^lck, active) (Homo sapiens, UniProt P06239); experiment: SRC-Inhibitor-Assay (time-resolved fluorescence), Lck; assay type: biochemical; details: ATP 5 μM, peptide 10 μM, enzyme 2.5 U/mL, 15 min pre-incubation at 15° C.
# T1 construct: purchased UBI, Upstate Biotech, Inc
# T1 sequence (P06239 whole entry): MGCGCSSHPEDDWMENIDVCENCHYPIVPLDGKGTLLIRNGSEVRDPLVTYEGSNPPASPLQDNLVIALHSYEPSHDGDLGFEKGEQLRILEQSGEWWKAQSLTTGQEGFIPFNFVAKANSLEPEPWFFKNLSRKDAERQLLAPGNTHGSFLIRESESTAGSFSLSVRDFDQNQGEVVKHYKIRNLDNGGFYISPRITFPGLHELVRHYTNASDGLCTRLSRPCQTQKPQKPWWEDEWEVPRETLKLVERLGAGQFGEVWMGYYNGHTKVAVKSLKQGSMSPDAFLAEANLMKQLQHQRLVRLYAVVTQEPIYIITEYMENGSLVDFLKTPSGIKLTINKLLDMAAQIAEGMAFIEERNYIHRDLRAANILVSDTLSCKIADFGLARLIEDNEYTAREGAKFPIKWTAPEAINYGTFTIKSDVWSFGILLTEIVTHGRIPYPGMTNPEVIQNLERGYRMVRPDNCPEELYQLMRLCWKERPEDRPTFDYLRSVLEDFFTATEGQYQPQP
# Excerpt: (§1) The activity of the compounds according to this invention as inhibitors for the src-family tyrosine kinases was shown by using the following assay.
# (§2) SRC-Inhibitor-Assay Parameters:
# (§3) Eu-labelled phosphotyrosine antibody:—for Lck Cisbio Mab PT66-K, • for Src EG&G Wallac PT66 Eu-W1024 (all commercially available).
# (§4) Peptides: Ro: NH2-A-E-E-E-I-Y-G-E-F-E-A-K-K-K-K-CONH2, and • Ja133-Ro: Ja133-G-Aminocaprylic acid-A-E-E-E-I-Y-G-E-F-E-A-K-K-K-K-CONH2, wherein Ja133 is LightCycler-Red 640-N-hydroxy succinimide ester; • whereby both peptides were synthesized by an optimized solid phase peptide synthesis protocol (Merrifield, Fed. Proc. Fed. Amer. Soc. Exp. Biol. 21 (1962) 412) on a Zinsser SMP350 peptide synthesizer. Shortly, the peptide was assembled on 160 mg (22.8 μmol scale) of a Rink-Linker modified polystyrene solid phase by repeatedly conjugating an twenty fold excess of amino acids each protected by temporary piperidine labile Fmoc- and permanent acid labile tert-Bu-, BOC- and O-tert-Bu-groups depending on the side chain function. The substrate sequence AEEEIYGEFEAKKKK was N-terminal additionally mounted with the spacer amino acids Aminocaprylic acid and Glycin. After cleavage of the N-terminal temporary protecting group the still attached and protected peptide was labeled with a 1.5 fold amount of LightCycler-Red 640-N-hydroxy succinimide ester (purchased from Roche Diagnostics GmbH) and triethylamine. After 3 hrs. the resin was washed with Dimethylformamide and Isopropanol until the eluates of the blue resin got colourless. […] The substrate was finally isolated by a preparative reverse phase HPLC purification. The purification yielded 12.2 mg RP-HPLC single peak pure blue material (lyophilisate). The identity was proven by MALDI mass spectroscopy [2720.0].
# (§5) Enzymes: Upstate Lck (p56^lck, active), Upstate Src (p60^c-src, partially purified) were purchased from UBI, Upstate Biotech, Inc.
# (§6) Time-resolved Fluorescence Assay: Reader: Perkin Elmer, Wallac Viktor 1420-040 multilabel counter; Liquid handling system: Beckman Coulter, Biomek 2000.
# (§7) ATP, Tween™ 20, 4-(2-hydroxyethyl)-l-piperazineethanesulfonic acid (HEPES) were purchased from Roche Molecular Biochemicals, MgCl2 and MnCl2 were purchased from Merck Eurolab, Tris(2-carboxyethyl)phosphine hydrochloride (TCEP) was purchased from Pierce, 384 Well low volume fluorescence plates was purchased from Falcon.
# (§8) At first the enzyme is pre-incubated for 15 min. at 15° C. in aqueous solution with corresponding amounts of inhibitors according to this invention. Then the phosphorylation reaction is started by adding a reaction mixture, containing ATP, Peptide and PT66, and subsequent shaking. The proceeding of this reaction is immediately monitored using time resolved fluorescence spectroscopy in a suitable well plate reader.
# (§9) The IC50-values can be obtained from the reaction rates by using a non-linear curve fit (XLfit software (ID Business Solution Ltd., Guilford, Surrey, UK))
# [2] = target: T2, Upstate Src (p60^c-src, partially purified) (Homo sapiens, UniProt P12931); experiment: SRC-Inhibitor-Assay (time-resolved fluorescence), Src; assay type: biochemical; details: ATP 5 μM, peptide 10 μM, enzyme 2.5 U/mL, 15 min pre-incubation at 15° C.
# T2 construct: purchased UBI, Upstate Biotech, Inc
# T2 sequence (P12931 whole entry): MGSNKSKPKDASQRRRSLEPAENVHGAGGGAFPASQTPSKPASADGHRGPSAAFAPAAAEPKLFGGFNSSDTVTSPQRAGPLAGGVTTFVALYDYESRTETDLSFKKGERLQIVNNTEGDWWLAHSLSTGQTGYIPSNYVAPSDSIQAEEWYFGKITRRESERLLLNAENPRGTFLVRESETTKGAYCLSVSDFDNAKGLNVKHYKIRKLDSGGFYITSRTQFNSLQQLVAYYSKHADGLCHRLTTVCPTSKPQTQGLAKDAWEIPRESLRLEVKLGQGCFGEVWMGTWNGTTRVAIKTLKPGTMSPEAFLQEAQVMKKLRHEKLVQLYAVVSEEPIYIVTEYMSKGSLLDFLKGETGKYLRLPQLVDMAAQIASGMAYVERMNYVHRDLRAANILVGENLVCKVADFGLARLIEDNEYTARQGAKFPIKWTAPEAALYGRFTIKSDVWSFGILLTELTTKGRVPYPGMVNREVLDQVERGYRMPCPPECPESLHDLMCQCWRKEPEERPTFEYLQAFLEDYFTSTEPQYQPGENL
# Excerpt: as §1, §2, §3, §4, §5, §6, §7, §8, §9
Structure (SMILES),IC50 [1],IC50 [2]
"CC(Nc1cnc2[nH]c(-c3ccccc3)nc2c1)c1ccccc1 (stereo not drawn) [Example 1-1, (1-Phenyl-ethyl)-(2-phenyl-3H-imidazo[4,5-b]pyridin-6-yl)-amine]",1000 to 5000 nM,500 to 1500 nM
"c1ccc(CNc2cnc3[nH]c(-c4ccccc4)cc3c2)cc1 [Example 2-3, Benzyl-(2-phenyl-1H-pyrrolo[2,3-b]pyridin-5-yl)-amine]",1000 to 5000 nM,10 to 500 nM
"CC(=O)Nc1ccc(-c2cc3cc(NCc4ccccc4)cnc3[nH]2)cc1 [Example 2-7, N-[4-(5-Benzylamino-1H-pyrrolo[2,3-b]pyridin-2-yl)-phenyl]-acetamide]",100 to 1000 nM,10 to 500 nM
"CC(=O)Nc1ccc(-c2cc3cc(NCc4ccccc4C)cnc3[nH]2)cc1 [Example 2-8, N-{4-[5-(2-Methyl-benzylamino)-1H-pyrrolo[2,3-b]pyridin-2-yl]-phenyl}-acetamide]",100 to 1000 nM,10 to 500 nM

# The next lines start with the values.
IC50 [1],IC50 [2],Structure (SMILES)
100 to 1000 nM,500 to 1500 nM,"COCCOc1cccc(-c2cc3cc(NCc4ccccc4)cnc3[nH]2)c1 [Example 2-1, Benzyl-{2-[3-(2-methoxy-ethoxy)-phenyl]-1H-pyrrolo[2,3-b]pyridin-5-yl}-amine]"
757 nM,131 nM,"COCCOc1cccc(-c2cc3cc(NCc4ccccc4C)cnc3[nH]2)c1 [Example 2-2, {2-[3-(2-Methoxy-ethoxy)-phenyl]-1H-pyrrolo[2,3-b]pyridin-5-yl}-(2-methyl-benzyl)-amine]"
100 to 1000 nM,10 to 500 nM,"Cc1ccccc1CNc1cnc2[nH]c(-c3ccccc3)cc2c1 [Example 2-4, (2-Methyl-benzyl)-(2-phenyl-1H-pyrrolo[2,3-b]pyridin-5-yl)-amine]"
100 to 1000 nM,10 to 500 nM,"CC(=O)Nc1cccc(-c2cc3cc(NCc4ccccc4)cnc3[nH]2)c1 [Example 2-5, N-[3-(5-Benzylamino-1H-pyrrolo[2,3-b]pyridin-2-yl)-phenyl]-acetamide]"
223 nM,31 nM,"CC(=O)Nc1cccc(-c2cc3cc(NCc4ccccc4C)cnc3[nH]2)c1 [Example 2-6, N-{3-[5-(2-Methyl-benzylamino)-1H-pyrrolo[2,3-b]pyridin-2-yl]-phenyl}-acetamide]"
